Patent publication EP4755881A1 (Wuhan Createrna Science and Technology Co., Ltd., priority 2023, dated 2025)
Read-outs that look alike come from different tables or passages of the source.

How the values were obtained:
[1] = Pharmacokinetic study in rats (oral gavage and tail vein injection, plasma LC-MS/MS); type: in vivo; conditions: rat; for Cmax: read-out: Cmax
Procedure: Male SPF-grade SD rats (Beijing Vital River Laboratory Animal Technology Co., Ltd.) with a body weight range of 200 to 250 g were used. After acclimatization, the rats were administered a clear solution of the compound of the present disclosure via oral gavage (Po, fasted overnight before administration with free access to water, food returned 4 hours after administration) and tail vein injection (Iv, free access to food and water throughout the administration). Blood samples were collected from the orbital venous plexus/jugular vein of rats at specified time points after administration (blood collection time points for the PO group: 0.167, 0.5, 1, 2, 4, 6, 8, and 24 h; for the IV group: 0.033, 0.167, 1, 2, 4, 6, 8, and 24 h). The concentration of compounds in plasma was detected by LC-MS/MS (AB SCIEX Qtrap4500). Data were analyzed using WinNonlin (version 5.2.1 Pharsight, Mountain View, CA) with a non-compartmental model to obtain PK parameters (including Cmax, C0, Tmax, AUClast, AUCinf, T1/2, etc.).
Table 3: Results of in vivo pharmacokinetic studies of compounds of the present disclosure in rats
The vehicle for the Po group compound was 5% DMSO + 5% ethanol + 60% PEG400 + 30% normal saline; the vehicle for the Iv group compound was 10% ethanol + 20% pure water + 70% PEG400 solution.

[2] = target: hLPAR1 (human lysophosphatidic acid receptor 1, Accession No.: NM_001401.4) (Homo sapiens, UniProt Q92633); assay: cell-based; conditions: FLIPR method, CHO-K1 cells overexpressing hLPAR1
Method in brief: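 Antagonist mode in CHO-K1 cells stably expressing hLPAR1, Fluo-4 loaded; compound preincubated 30 min at room temperature before 1 µM oleoyl-LPA (final) challenge.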

[3] = Table 1, read-out: LPAR1 inhibitory activity IC50
[4] = LPAR1 inhibitory activity IC50, Table 1

hLPAR1 (human lysophosphatidic acid receptor 1, Accession No.: NM_001401.4), sequence (Q92633 whole entry): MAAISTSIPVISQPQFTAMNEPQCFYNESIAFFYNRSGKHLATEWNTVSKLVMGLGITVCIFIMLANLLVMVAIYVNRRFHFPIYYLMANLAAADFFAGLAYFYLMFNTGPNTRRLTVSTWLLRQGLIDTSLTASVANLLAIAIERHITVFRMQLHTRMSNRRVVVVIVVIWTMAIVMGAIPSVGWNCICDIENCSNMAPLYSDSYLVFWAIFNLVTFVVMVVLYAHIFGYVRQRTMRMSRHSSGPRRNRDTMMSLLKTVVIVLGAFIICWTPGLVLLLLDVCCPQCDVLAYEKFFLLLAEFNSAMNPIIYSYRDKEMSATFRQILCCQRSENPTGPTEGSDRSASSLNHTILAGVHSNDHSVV

| half-life ([1]; male, SD, iv, 1 mg/kg) | AUC(0-t) ([1]; male, SD rats, Iv, 1 mg/kg) | Cmax ([1]; male, SD rats, Iv, 1 mg/kg) | IC50 [2, 3] | half-life ([1]; male, SD, po, 1 mg/kg) | AUC(0-t) ([1]; male, SD rats, Po, 1 mg/kg) | Cmax ([1]; male, SD rats, Po, 1 mg/kg) | half-life ([1]; male, SD, po, 3 mg/kg) | AUC(0-t) ([1]; male, SD rats, Po, 3 mg/kg) | Cmax ([1]; male, SD rats, Po, 3 mg/kg) | SMILES | AUC(0-t) ([1]; SD rats, Iv, 1 mg/kg) | half-life ([1]; SD rats, Iv, 1 mg/kg) | Cmax ([1]; SD rats, Iv, 1 mg/kg) | AUC(0-t) ([1]; SD rats, Po, 1 mg/kg) | half-life ([1]; SD rats, Po, 1 mg/kg) | Cmax ([1]; SD rats, Po, 1 mg/kg) | IC50 [2, 4] |
| --- | --- | --- | --- | --- | --- | --- | --- | --- | --- | --- | --- | --- | --- | --- | --- | --- | --- |
| 7.5 h | 3000 to 5000 ng·h/mL | 5000 to 8000 ng/mL | 37.2 nM | – | – | – | – | – | – | Cc1nc(-c2nnn(C)c2NC(=O)OC(C)c2cc(F)cnc2Cl)ccc1C#CC1(CC(=O)O)CC1 (single isomer, unassigned) [023-A, 2-(1-((6-(5-(((1-(2-chloro-5-fluoropyridin-3-yl)ethoxy)carbonyl)amino)-1-methyl-1H-1,2,3-triazol-4-yl)-2-methylpyridin-3-yl)ethynyl)cyclopropyl)acetic acid] | – | – | – | – | – | – | – |
| – | – | – | – | – | – | – | – | – | – | Cc1nc(-c2nnn(C)c2NC(=O)O[C@H](C)CC(C)(F)F)ccc1C#C[C@H]1CCC[C@@H]1C(=O)O (single isomer, unassigned) [246-B] | 5000 to 10000 ng·h/mL | 7.01 h | 800 to 5000 ng/mL | 3000 to 5000 ng·h/mL | 4.4 h | 200 to 800 ng/mL | 25.9 nM |
| 5.19 h | 5000 to 10000 ng·h/mL | 5000 to 8000 ng/mL | 34.4 nM | 4 h | 5000 to 10000 ng·h/mL | 800 to 5000 ng/mL | – | – | – | CC(OC(=O)Nc1c(-c2ccc(C#CC3(CC(=O)O)CC3)c(F)n2)nnn1C)C12CC(C1)C2 (stereo not shown) [237-A, 2-(1-((6-(5-(((1-(bicyclo[1.1.1]pentan-1-yl)ethoxy)carbonyl)amino)-1-methyl-1H-1,2,3-triazol-4-yl)-2-fluoropyridin-3-yl)ethynyl)cyclopropyl)acetic acid] | – | – | – | – | – | – | – |
| 7.18 h | 1200 to 3000 ng·h/mL | 5000 to 8000 ng/mL | 83.4 nM | – | – | – | 3.4 h | 3000 to 5000 ng·h/mL | 800 to 5000 ng/mL | C[C@H](C1CC1)N(C)C(=O)OCc1c(-c2ccc(C#CC3(CC(=O)O)CC3)cn2)nnn1C [compound 002, (R)-2-(1-((6-(5-((((1-cyclopropylethyl)(methyl)carbamoyl)oxy)methyl)-1-methyl-1H-1,2,3-triazol-4-yl)pyridin-3-yl)ethynyl)cyclopropyl)acetic acid] | – | – | – | – | – | – | – |
| – | – | – | – | – | – | – | – | – | – | Cc1nc(-c2nnn(C)c2NC(=O)O[C@H](C)c2ccccc2Cl)ccc1C#C[C@H]1CC[C@@H]1C(=O)O [compound 033] | 3000 to 5000 ng·h/mL | 5.93 h | 800 to 5000 ng/mL | 3000 to 5000 ng·h/mL | 5.31 h | 800 to 5000 ng/mL | 3.3 nM |
| – | – | – | – | – | – | – | – | – | – | CCCCN(C)C(=O)OCc1c(-c2ccc(C#CC3(CC(=O)O)CC3)c(F)n2)nnn1C [compound 105] | 1200 to 3000 ng·h/mL | 4.72 h | 800 to 5000 ng/mL | 1200 to 3000 ng·h/mL | 6.6 h | 200 to 800 ng/mL | 56.2 nM |
| – | – | – | – | – | – | – | – | – | – | Cc1nc(-c2nnn(C)c2Nc2cncc(OC(C)C)n2)ccc1C#CC1(CC(=O)O)CC1 [compound 125, 2-(1-((6-(5-((6-isopropoxypyrazin-2-yl)amino)-1-methyl-1/7-1,2,3-triazol-4-yl)-2-methylpyridin-3-yl)ethynyl)cyclopropyl)acetic acid] | 1200 to 3000 ng·h/mL | 4.65 h | 800 to 5000 ng/mL | – | – | – | 43.6 nM |
| 6.18 h | 5000 to 10000 ng·h/mL | 800 to 5000 ng/mL | 24.9 nM | 6.08 h | 3000 to 5000 ng·h/mL | 200 to 800 ng/mL | – | – | – | C[C@H](CC(C)(F)F)OC(=O)Nc1c(-c2ccc(C#CC3(CC(=O)O)CC3)c(Cl)n2)nnn1C [compound 210, (R)-2-(1-((2-chloro-6-(5-((((4,4-difluoropentan-2-yl)oxy)carbonyl)amino)-1-methyl-1H-1,2,3-triazol-4-yl)pyridin-3-yl)ethynyl)cyclopropyl)acetic acid] | – | – | – | – | – | – | – |

| SMILES | half-life ([1]; male, SD, iv, 1 mg/kg) | AUC(0-t) ([1]; male, SD rats, Iv, 1 mg/kg) | Cmax ([1]; male, SD rats, Iv, 1 mg/kg) | IC50 [2, 3] | half-life ([1]; male, SD, po, 1 mg/kg) | AUC(0-t) ([1]; male, SD rats, Po, 1 mg/kg) | Cmax ([1]; male, SD rats, Po, 1 mg/kg) | half-life ([1]; male, SD, po, 3 mg/kg) | AUC(0-t) ([1]; male, SD rats, Po, 3 mg/kg) | Cmax ([1]; male, SD rats, Po, 3 mg/kg) | AUC(0-t) ([1]; SD rats, Iv, 1 mg/kg) | half-life ([1]; SD rats, Iv, 1 mg/kg) | Cmax ([1]; SD rats, Iv, 1 mg/kg) | AUC(0-t) ([1]; SD rats, Po, 1 mg/kg) | half-life ([1]; SD rats, Po, 1 mg/kg) | Cmax ([1]; SD rats, Po, 1 mg/kg) | IC50 [2, 4] |
| --- | --- | --- | --- | --- | --- | --- | --- | --- | --- | --- | --- | --- | --- | --- | --- | --- | --- |
| CCC(F)(F)CC(C)OC(=O)Nc1c(-c2ccc(C#CC3CCC3C(=O)O)c(C)n2)nnn1C (single isomer, unassigned) [245-B] | – | – | – | 34.6 nM | – | – | – | – | – | – | 3000 to 5000 ng·h/mL | 7.22 h | 800 to 5000 ng/mL | 3000 to 5000 ng·h/mL | 6.66 h | 200 to 800 ng/mL | – |
| Cc1nc(-c2nnn(C)c2NC(=O)OC(C)CC2CC2)ccc1C#CC1CCC1C(=O)O (single isomer, unassigned) [248-A] | – | – | – | 18.1 nM | – | – | – | – | – | – | 3000 to 5000 ng·h/mL | 7.72 h | 800 to 5000 ng/mL | 5000 to 10000 ng·h/mL | 5.33 h | 200 to 800 ng/mL | – |
